# Target: recombinant human His-ATG7 enzyme (Homo sapiens (Human), UniProt O95352)
# Test: ATG7 Enzyme Assay (HTRF/FRET, ATG3-GST and Flag-Gabarap)
# Format: biochemical
# Settings: for inhibition at 0.123 µM: Concentration 0.123 μM
# Procedure, shortened: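 HTRF read-out after 2 h at 24° C, using Eu-cryptate anti-Flag and XL-APC anti-GST antibodies in an EDTA stop buffer. The preceding 105 min, 24° C reaction (pH 7.5) held 10 μM ATP, 5 nM each ATG3-GST and Flag-Gabarap, and 0.15 nM human His-ATG7. Values are IC50 or percent inhibition at one concentration.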
# [1] = Concentration 0.111 μM, read-out: Percent Inhibition
# Chain of recombinant human His-ATG7 enzyme (O95352 whole entry): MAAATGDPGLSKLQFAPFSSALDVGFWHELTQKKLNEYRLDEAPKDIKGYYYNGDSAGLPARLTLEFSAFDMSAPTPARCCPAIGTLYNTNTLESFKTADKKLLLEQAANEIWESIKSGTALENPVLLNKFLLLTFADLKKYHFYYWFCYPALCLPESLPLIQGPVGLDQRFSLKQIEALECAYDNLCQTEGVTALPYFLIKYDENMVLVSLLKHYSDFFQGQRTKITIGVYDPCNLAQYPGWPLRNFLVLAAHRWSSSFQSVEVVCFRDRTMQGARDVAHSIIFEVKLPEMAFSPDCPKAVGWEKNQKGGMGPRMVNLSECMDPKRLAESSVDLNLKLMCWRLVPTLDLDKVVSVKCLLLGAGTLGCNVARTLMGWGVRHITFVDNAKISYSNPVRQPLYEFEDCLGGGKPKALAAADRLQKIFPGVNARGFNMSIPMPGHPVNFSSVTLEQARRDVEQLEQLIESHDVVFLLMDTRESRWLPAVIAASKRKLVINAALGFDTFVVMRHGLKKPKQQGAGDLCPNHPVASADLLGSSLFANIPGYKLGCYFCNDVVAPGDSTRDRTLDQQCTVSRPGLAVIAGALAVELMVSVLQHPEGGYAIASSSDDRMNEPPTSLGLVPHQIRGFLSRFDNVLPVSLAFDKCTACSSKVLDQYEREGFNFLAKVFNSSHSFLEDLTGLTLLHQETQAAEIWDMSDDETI
Structure (SMILES),IC50 [nM],inhibition at 0.123 µM (read-out: Percent Inhibition) [%],inhibition at 0.111 µM [1] [%],"inhibition at 0.069 µM (Concentration 0.069 μM, read-out: Percent Inhibition) [%]",Percent Inhibition (Concentration 0.111 μM) [%]
"Nc1ncnc2c1c(-c1ccn[nH]1)nn2[C@@H]1O[C@H](COS(N)(=O)=O)[C@@H](O)[C@H]1O [Compound I-68, {(2R,3S,4R,5R)-5-[4-amino-3-(1H-pyrazol-5-yl)-1H-pyrazolo[3,4-d]pyrimidin-1-yl]-3,4-dihydroxytetrahydrofuran-2-yl}methyl sulfamate]",> 500,10,–,–,–
"Nc1ncnc2c1c(Sc1ccc3c(c1)OCC3)nn2[C@H]1C[C@H](O)[C@@H](COS(N)(=O)=O)O1 [Compound I-168, {(2R,3S,5R)-5-[4-amino-3-(2,3-dihydro-1-benzofuran-6-ylsulfanyl)-1H-pyrazolo[3,4-d]pyrimidin-1-yl]-3-hydroxytetrahydrofuran-2-yl}methyl sulfamate]",20 to 50,–,77,–,–
"COc1nn([C@H]2C[C@H](O)[C@@H](COS(N)(=O)=O)O2)c2ncnc(N)c12 [Compound I-190, [(2R,3S,5R)-5-(4-amino-3-methoxy-1H-pyrazolo[3,4-d]pyrimidin-1-yl)-3-hydroxytetrahydrofuran-2-yl]methyl Sulfamate]",100 to 500,35,–,–,–
"Cc1ccc(Sc2nn([C@H]3C[C@H](O)[C@@H](COS(N)(=O)=O)O3)c3ncnc(N)c23)c(F)c1 [Compound I-161, [(2R,3S,5R)-5-{4-amino-3-[(2-fluoro-4-methylphenyl)sulfanyl]-1H-pyrazolo[3,4-d]pyrimidin-1-yl}-3-hydroxytetrahydrofuran-2-yl]methyl Sulfamate]",50 to 100,–,59,–,–
"CC(C)Oc1nn([C@@H]2O[C@H](COS(N)(=O)=O)[C@@H](O)[C@H]2O)c2ncnc(N)c12 [Compound I-7, [(2R,3S,4R,5R)-5-(4-amino-3-isopropoxy-1H-pyrazolo[3,4-d]pyrimidin-1-yl)-3,4-dihydroxytetrahydrofuran-2-yl]methyl sulfamate]",> 500,–,–,7,–
"Nc1ncnc2c1c(Sc1ccc(OC(F)(F)F)cc1)nn2[C@H]1C[C@H](O)[C@@H](COS(N)(=O)=O)O1 [Compound I-197, [(2R,3S,5R)-5-(4-amino-3-{[4-(trifluoromethoxy)phenyl]sulfanyl}-1H-pyrazolo[3,4-d]pyrimidin-1-yl)-3-hydroxytetrahydrofuran-2-yl]methyl sulfamate]",100 to 500,–,45,–,–
"Nc1ncnc2c1c(Sc1cc(C(F)(F)F)ccn1)nn2[C@@H]1O[C@H](COS(N)(=O)=O)[C@@H](O)[C@@H]1F [Compound I-117, [(2R,3R,4S,5R)-5-(4-amino-3-{[4-(trifluoromethyl)pyridin-2-yl]sulfanyl}-1H-pyrazolo[3,4-d]pyrimidin-1-yl)-4-fluoro-3-hydroxytetrahydrofuran-2-yl]methyl sulfamate]",20 to 50,–,83,–,–
"COc1nn([C@@H]2O[C@H](COS(N)(=O)=O)[C@@H](O)[C@H]2O)c2ncnc(N)c12 [Compound I-1, [(2R,3S,4R,5R)-5-(4-amino-3-methoxy-1H-pyrazolo[3,4-d]pyrimidin-1-yl)-3,4-dihydroxytetrahydrofuran-2-yl]methyl sulfamate]",50 to 100,51,–,–,–
"C=CCOc1nn([C@@H]2O[C@H](COS(N)(=O)=O)[C@@H](O)[C@H]2O)c2ncnc(N)c12 [Compound I-71, {(2R,3S,4R,5R)-5-[3-(allyloxy)-4-amino-1H-pyrazolo[3,4-d]pyrimidin-1-yl]-3,4-dihydroxytetrahydrofuran-2-yl}methyl Sulfamate]",100 to 500,38,–,–,–
"CC(Sc1nn([C@@H]2O[C@H](COS(N)(=O)=O)[C@@H](O)[C@@H]2F)c2ncnc(N)c12)C1CC1 (mixture of isomers) [Compound I-157, [(2R,3R,4S,5R)-5-(4-amino-3-{[(1R)-1-cyclopropylethyl]sulfanyl}-1H-pyrazolo[3,4-d]pyrimidin-1-yl)-4-fluoro-3-hydroxytetrahydrofuran-2-yl]methyl sulfamate and [(2R,3R,4S,5R)-5-(4-amino-3-{[(1S)-1-cyclopropylethyl]sulfanyl}-1H-pyrazolo[3,4-d]pyrimidin-1-yl)-4-fluoro-3-hydroxytetrahydrofuran-2-yl]methyl sulfamate]",20 to 50,–,71,–,–
"Nc1ncnc2c1c(Sc1ccccc1)nn2[C@@H]1O[C@H](COS(N)(=O)=O)[C@@H](O)[C@H]1O [Compound I-82, {(2R,3S,4R,5R)-5-[4-amino-3-(phenylsulfanyl)-1H-pyrazolo[3,4-d]pyrimidin-1-yl]-3,4-dihydroxytetrahydrofuran-2-yl}methyl Sulfamate]",20 to 50,–,80,–,–
"Nc1ncnc2c1c(Sc1ccccn1)nn2[C@@H]1O[C@H](COS(N)(=O)=O)[C@@H](O)[C@@H]1F [Compound I-113, {(2R,3R,4S,5R)-5-[4-amino-3-(pyridin-2-ylsulfanyl)-1H-pyrazolo[3,4-d]pyrimidin-1-yl]-4-fluoro-3-hydroxytetrahydrofuran-2-yl}methyl sulfamate]",< 20,–,89,–,–
"Nc1ncnc2c1c(SCc1ccncc1)nn2[C@@H]1O[C@H](COS(N)(=O)=O)[C@@H](O)[C@@H]1F [Compound I-124, [(2R,3R,4S,5R)-5-{4-amino-3-[(pyridin-4-ylmethyl)sulfanyl]-1H-pyrazolo[3,4-d]pyrimidin-1-yl}-4-fluoro-3-hydroxytetrahydrofuran-2-yl]methyl sulfamate]",50 to 100,–,52,–,–
"Nc1ncnc2c1c(Sc1ccccc1F)nn2[C@@H]1O[C@H](COS(N)(=O)=O)[C@@H](O)[C@@H]1F [Compound I-109, [(2R,3R,4S,5R)-5-{4-amino-3-[(2-fluorophenyl)sulfanyl]-1H-pyrazolo[3,4-d]pyrimidin-1-yl}-4-fluoro-3-hydroxytetrahydrofuran-2-yl]methyl sulfamate]",20 to 50,–,82,–,–
"NC(=O)CSc1nn([C@H]2C[C@H](O)[C@@H](COS(N)(=O)=O)O2)c2ncnc(N)c12 [Compound I-159, [(2R,3S,5R)-5-{4-amino-3-[(2-amino-2-oxoethyl)sulfanyl]-1H-pyrazolo[3,4-d]pyrimidin-1-yl}-3-hydroxytetrahydrofuran-2-yl]methyl sulfamate]",100 to 500,–,29,–,–
"Cc1ccccc1CSc1nn([C@@H]2O[C@H](COS(N)(=O)=O)[C@@H](O)[C@H]2O)c2ncnc(N)c12 [Compound I-39, [(2R,3S,4R,5R)-5-{4-amino-3-[(2-methylbenzyl)sulfanyl]-1H-pyrazolo[3,4-d]pyrimidin-1-yl}-3,4-dihydroxytetrahydrofuran-2-yl]methyl sulfamate]",20 to 50,75,–,–,–
"Cc1ccc(Sc2nn([C@H]3C[C@H](O)C(COS(N)(=O)=O)O3)c3ncnc(N)c23)c(F)c1 (stereo in doubt) [Compound I-211, [(2S,3S,5R)-5-{4-amino-3-[(2-fluoro-4-methylphenyl)sulfanyl]-1H-pyrazolo[3,4-d]pyrimidin-1-yl}-3-hydroxytetrahydrofuran-2-yl]methyl Sulfamate]",50 to 100,–,–,–,64
"Nc1ncnc2c1c(SC1CCCCC1O)nn2[C@@H]1O[C@H](COS(N)(=O)=O)[C@@H](O)[C@H]1O (mixture of isomers) [Compound I-47, [(2R,3S,4R,5R)-5-(4-amino-3-{[(1R,2R)-2-hydroxycyclohexyl]sulfanyl}-1H-pyrazolo[3,4-d]pyrimidin-1-yl)-3,4-dihydroxytetrahydrofuran-2-yl]methyl Sulfamate and [(2R,3S,4R,5R)-5-(4-amino-3-{[(1S,2S)-2-hydroxycyclohexyl]sulfanyl}-1H-pyrazolo[3,4-d]pyrimidin-1-yl)-3,4-dihydroxytetrahydrofuran-2-yl]methyl Sulfamate]",100 to 500,48,–,–,–
"Nc1ncnc2c1c(Sc1cccnc1)nn2[C@@H]1O[C@H](COS(N)(=O)=O)[C@@H](O)[C@@H]1F [Compound I-138, {(2R,3R,4S,5R)-5-[4-amino-3-(pyridin-3-ylsulfanyl)-1H-pyrazolo[3,4-d]pyrimidin-1-yl]-4-fluoro-3-hydroxytetrahydrofuran-2-yl}methyl sulfamate]",50 to 100,–,64,–,–
"CC(C)Sc1nn([C@H]2C[C@H](O)[C@H](COS(N)(=O)=O)O2)c2ncnc(N)c12 [Compound I-220, {(2S,3S,5R)-5-[4-amino-3-(isopropylsulfanyl)-1H-pyrazolo[3,4-d]pyrimidin-1-yl]-3-hydroxytetrahydrofuran-2-yl}methyl sulfamate]",50 to 100,–,65,–,–
"Nc1ncnc2c1c(SCc1cccnc1)nn2[C@@H]1O[C@H](COS(N)(=O)=O)[C@@H](O)[C@H]1O [Compound I-45, [(2R,3S,4R,5R)-5-{4-amino-3-[(pyridin-3-ylmethyl)sulfanyl]-1H-pyrazolo[3,4-d]pyrimidin-1-yl}-3,4-dihydroxytetrahydrofuran-2-yl]methyl sulfamate]",20 to 50,73,–,–,–
"CCc1nn([C@H]2C[C@H](O)[C@H](COS(N)(=O)=O)O2)c2ncnc(N)c12 [Compound I-212, [(2S,3S,5R)-5-(4-amino-3-ethyl-1H-pyrazolo[3,4-d]pyrimidin-1-yl)-3-hydroxytetrahydrofuran-2-yl]methylsulfamate]",–,–,7,–,–
"Nc1ncnc2c1c(SCc1ccnnc1)nn2[C@@H]1O[C@H](COS(N)(=O)=O)[C@@H](O)[C@@H]1F [Compound I-128, [(2R,3R,4S,5R)-5-{4-amino-3-[(pyridazin-4-ylmethyl)sulfanyl]-1H-pyrazolo[3,4-d]pyrimidin-1-yl}-4-fluoro-3-hydroxytetrahydrofuran-2-yl]methyl sulfamate]",50 to 100,–,52,–,–
